These results are taken from paper PMC11053489 (Viruses, 2024).

Where two headings read alike, the source gives them in different places.

For series [1], the system named is Vero CCL-81 cells.
Series [2] has as its system SARS-CoV-2 (hCoV-19/USA-WA1/2020) in Vero CCL-81 cells. The experiment in a line: microbe, parasite or virus in culture. Type of series: cell-based. The following applies: for anti-SARS-CoV-2 activity (in words), concentrations up to 100 μM: Vero CCL-81 cells.
The conditions of series [3]: 10 mg/kg (in cats); cited from earlier work.
The conditions of series [4]: following an IV infusion of remdesivir over 2 h, in vivo; cited from earlier work.
The nature of series [5]: in vitro. Conditions: human.
For series [6] the following is noted: cited from earlier work.
The conditions of series [7]: remdesivir following IV infusion; cited from earlier work.
Series [8] in a line: in vitro. The following applies: human. The source holds these as a separate data set.
The nature of series [9]: in vitro. Conditions: human. This is another data set of the same source.
For series [10] the following is noted: dog, in vivo; cited from earlier work.
Series [11] has as its system SARS-CoV-2 (hCoV-19/USA-WA1/2020) in Caco-2 cells. Kind of series: microbe, parasite or virus in culture. Conditions: Severe acute respiratory syndrome coronavirus 2, Caco-2, 72 h; for EC50: read-out: Caco-2 SARS-CoV-2 EC50; for EC90: read-out: Caco-2 SARS-CoV-2 EC90.
Series [12] in a line: in vitro. Conditions: human, Caco-2.
The conditions of series [13]: human, in vivo.
A short description of series [14]: in vitro. Conditions: human. This is another data set of the same source.
Series [15] is described as follows: in vitro. Conditions: African green monkey.
The subject of series [16] is SARS-CoV-2 (hCoV-19/USA-WA1/2020) in Caco-2 cells. Conditions: for Caco-2 Unbound Cmax/EC50 / EC90: Caco-2.
Series [17] relates to SARS-CoV-2 (hCoV-19/USA-WA1/2020) in Calu-3 cells. Kind of series: microbe, parasite or virus in culture. Type of series: cell-based. The following applies: for EC50: read-out: Calu-3 SARS-CoV-2 EC50; for EC90: read-out: Calu-3 SARS-CoV-2 EC90.
For series [18] the following is noted: cited from earlier work. This is another data set of the same source.
The conditions of series [19]: cynomolgus monkey, in vivo; cited from earlier work.
Series [20] relates to Vero E6 cells. The following applies: read-out: CC50 in Vero E6 cells; cited from earlier work.
Series [21] concerns SARS-CoV-2 in Vero E6 cells. Conditions: read-out: EC50, SARS-CoV-2 infectivity in Vero E6 cells; cited from earlier work.
The test system of series [22] is CCRF-CEM cells.
For series [23] the following is noted: rats; cited from earlier work.
The conditions of series [24]: human astrocytes and hBTEC; cited from earlier work.
For series [25] the following is noted: primary hepatocytes; cited from earlier work.
For series [26], the system named is COVID-19 / SARS-CoV-2 infection. The following applies: cited from earlier work.
Series [27] can be described thus: Peak plasma concentration. The following applies: Table 1; Cmax × Fun.
In series [28] the test system is SARS-CoV-2 in Vero cells. The following applies: read-out: EC50, virus replication in Vero cells; cited from earlier work.
For series [29] the following is noted: mice and rats; cited from earlier work.
The conditions of series [30]: cited from earlier work. This is another data set of the same source.
Series [31] has as its system Vero CCL-81 cells. Kind of series: MTS cytotoxicity assay, Vero CCL-81 cells. Conditions: up to 100 μM.
The conditions of series [32]: in vivo; cited from earlier work.
In series [33] the test system is Calu-3 cells.
The subject of series [34] is CCRF-CEM cells. Kind of series: MTS cytotoxicity assay, CEM cells. The following applies: read-out: CEM CC50; 4 days. Background: Tetrazolium dyes change colour on reduction, which living cells bring about.
Series [35] has as its system Caco-2 cells.
Series [36] deals with primary human peripheral blood mononuclear cells (PBM). Kind of series: MTS cytotoxicity assay, PBM cells. Conditions: read-out: PBM CC50; 5 days.
The test system of series [37] is Huh-7 cells. The experiment in a line: MTS cytotoxicity assay, Huh-7 cells. The following applies: read-out: Huh7 CC50; 4 days.
The subject of series [38] is Huh-7 cells.
In series [39] the test system is primary human peripheral blood mononuclear cells (PBM).
Where [40] appears, read: Severe acute respiratory syndrome coronavirus 2, Table 1 drugs, MOI 0.1, 48 h, 2% FBS, read-out: Vero CCL-81 SARS-CoV-2 EC50.
The mark [41] stands for this setting: Severe acute respiratory syndrome coronavirus 2, Table 1 drugs, MOI 0.1, 48 h, 2% FBS, read-out: Vero CCL-81 SARS-CoV-2 EC90.
[42] abbreviates: Severe acute respiratory syndrome coronavirus 2, Calu-3, MOI 0.01, 72 h, 2% FBS.
Setting [43] is: Table 1, ref column Refs of Table 1.
The mark [44] stands for this setting: Severe acute respiratory syndrome coronavirus 2, Calu-3, 72 h.
Setting [45] is: read-out: Vero CCL-81 SARS-CoV-2 EC90.

The EC50 is the concentration giving half of the maximal effect. What is called EC90 is the concentration at which the effect reaches the 90% level. What is called Cmax is the peak of the concentration-time curve. As to `CC(C)C[C@H](NC(=O)OCc1ccccc1)C(=O)N[C@@H](CC1CCNC1=O)C(O)S(=O)(=O)O` (some centres unmarked) [GC376], the CC50 in series [1] is > 100 µM. For the same compound, the EC50 in series [2] (read-out: Vero CCL-81 Cells EC50) was found to be 0.2 µM. Besides, in series [2] (read-out: Vero CCL-81 Cells EC90), the EC90 turned out to be 0.6 µM. In series [3], the Cmax was 1700 nM.

Take `N#C[C@@]1(c2ccc3c(N)ncnn23)O[C@H](COP(=O)(O)OP(=O)(O)OP(=O)(O)O)[C@@H](O)[C@H]1O` [GS-441524-TP]: the “t1/2 of GS-441524-TP in human blood mononuclear cells” value in [4] was 36 to 43 h.

Turning to `N#C[C@@]1(c2ccc3c(N)ncnn23)O[C@H](CO)[C@@H](O)[C@H]1O` [GS-441524], the CC50 at 4 days in series [5] and in series [14] was > 100 µM in each case. Also, the “Fun (unbound fraction of drug in plasma)” value in series [6] (plasma) is 0.79. In addition, the EC50 worked out at 0.8 µM in series [2] (setting [40]), 0.08 µM in series [11] and 0.3 µM in series [17] (setting [42]). Further, the results for the EC90 in [2] (setting [41]), in series [11] and in series [17] (setting [42]) were 1.4 µM, 1.4 µM and 2.34 µM, respectively. The “plasma t1/2” value in [7] is 6 to 7 h. In addition, the CC50 at 5 days in [8] was > 100 µM. In addition, the CC50 at 3 days in [9], in [12] and in series [15] was > 100 µM each time. The oral bioavailability is given as ~89% in series [10]; < 10% in [18] (monkey, in vivo, po); “about 3%” in [19]. Moreover, the “Cmax (μM) {unbound}” value in [13] was determined as 2.41 µM. Moreover, the “Caco-2 Unbound Cmax/EC50” value in series [16] was 30.

For the compound `C=CCc1ccc(O)c(-c2ccc(O)c(CC=C)c2)c1` [Honokiol], the CC50 in series [20] is 54 µM; in series [5] (CEM CC50, 4 days), 28.6 µM; in series [5] (CEM CC50 {Unbound}), 26.7 µM; in [12] it was 18.4 µM; in [15], 40.4 µM. Besides, the “Fun (unbound fraction of drug in plasma)” value in series [6] (setting [43]) is 0.36. Besides, the EC50 in series [2] (Severe acute respiratory syndrome coronavirus 2, 48 h, read-out: Vero CCL-81 SARS-CoV-2 EC50) was 20.1 µM; in series [21] it was 13 µM; in series [11], 9.6 µM; in series [17] (setting [44]), 69.2 µM. The EC90 in [2] (Severe acute respiratory syndrome coronavirus 2, 48 h, read-out: Vero CCL-81 SARS-CoV-2 EC90) came to 84 µM; in series [11], 80.4 µM; in [17] (setting [44]), 94 µM. Further, in [22] (human), the “CEM CC50 {Unbound}” value is reported as 28.6 {26.8} μM.

As for `C=CCc1ccc(O)c(-c2cc(CC=C)ccc2O)c1` [Magnolol], the oral bioavailability in series [23] is recorded as 4%.

On to `O=c1nc(NO)ccn1[C@@H]1O[C@H](COP(=O)(O)OP(=O)(O)OP(=O)(O)O)[C@@H](O)[C@H]1O` [NTP of NHC], for which the “cellular t1/2” value in series [24] is 4 to 5 h; in series [25], 0.4 to 1.1 h.

As to `CCC(CC)COC(=O)[C@H](C)N[P@](=O)(OC[C@H]1O[C@@](C#N)(c2ccc3c(N)ncnn23)[C@H](O)[C@@H]1O)Oc1ccccc1` [Remdesivir], the “Fun (unbound fraction of drug in plasma)” value in [6] (setting [43]) is reported as 0.12. The EC50 was 3.2 µM in [2] (setting [40]), 0.02 µM in [11] and 0.2 µM in [17] (setting [42]). Also, the values for the EC90 in [2] (setting [41]), in series [11] and in series [17] (setting [42]) were 4.7 µM, 0.1 µM and 0.7 µM, respectively. In addition, the “plasma t1/2” value in series [7] is recorded as ~ 1 h. Further, the “shortening of hospitalization duration” value in series [26] (IV remdesivir, hospitalized patients with COVID-19, ACTT-1 trial) is recorded as 5 days. Also, in series [26] (IV, 3-day course, high-risk non-hospitalized patients, PINETREE trial), the reduction in hospitalizations is listed as 87%. In addition, the CC50 in series [12] and in series [15] was > 100 µM in each case. Besides, in series [27], the “Cmax (μM) {unbound}” value amounted to 0.44 µM. Further, the “Caco-2 Unbound Cmax/EC50” value in [16] is recorded as 22. In series [18] (African Green monkeys, oral), the “fraction of orally administered drug entering the systemic circulation intact” value is < 1%.

As to `CC(C)(Oc1ccc(C(=O)c2ccc(Cl)cc2)cc1)C(=O)O` [fenofibric acid], in series [28], the EC50 was 7 µM.

`c1coc(CNc2ncnc3[nH]cnc23)c1` [kinetin, N^6-furfurylaminopurine]: the “antiviral activity in Vero CCL-81 cells (in words)” value in [2] (NAs and nucleoside-base precursors, evaluated up to 20 μM) is reported as “lack of antiviral activity”. Also, the “anti-SARS-CoV-2 activity (in words), concentrations up to 100 μM” value in series [2] was “did not inhibit SARS-CoV-2”. Further, the oral bioavailability in series [29] is given as 50%. The “bound to plasma proteins” value in series [30] is ~ 80%. Also, the “cytotoxicity (in words), up to 100 μM” value in series [31] is “not cytotoxic”.

`CN(C)C(=N)N=C(N)N` [metformin]: in series [1] (African green monkey), the “cytotoxicity (in words), up to 100 μM” value was “did not observe an EC50 or cytotoxicity”. The “anti-SARS-CoV-2 activity (in words), concentrations up to 100 μM” value in series [2] is “inactive”; in series [2] (listed as Metformin), “did not observe an EC50”. For the same compound, the “absolute reduction in long COVID incidence compared with placebo” value in series [26] (COVID-OUT) is listed as 4.1%. For the same compound, in [26] (outpatient treatment, COVID-OUT), the “reduction of the incidence of long COVID” value is “about 41%”. Moreover, in [32], the “plasma Cmax (bound + unbound)” value is 10200 nM.

Consider Iota-Carrageenan, for which the values for the EC90 in series [2] (setting [45]), in [16] and in [17] were 1.6 µM, 93.3 µM and 1.9 µM, respectively. Further, the CC50 in series [33] was > 100 µM; in series [34], 95.9 µM; in series [35] it was > 100 µM; in [36] it was > 100 µM; in series [37], > 100 µM. The absolute risk reduction in series [26] (topical nasal spray, 300 hospital personnel) is listed as 4%.

Ivermectin: the CC50 in series [1] was 35.2 µM; in series [33], 17.5 µM; in series [34], 12 µM; in series [35], 5.8 µM; in [36], 29.2 µM; in [37], 5.6 µM. The “Vero CC50 {Unbound}” value in series [1] is 35.2 {31.9} μM. In addition, the “Fun (unbound fraction of drug in plasma)” value in series [6] (setting [43]) was 0.07. Moreover, the EC50 came to 2.1 µM in series [2] (read-out: Vero CCL-81 SARS-CoV-2 EC50), 4.5 µM in series [16] (read-out: Caco-2 SARS-CoV-2 EC50) and 6.2 µM in [17]. Also, the EC90 in [2] (setting [45]) came to 4.5 µM; in series [16], 8.9 µM; in [17] it was 9.3 µM. The “Caco-2 Unbound Cmax/EC50” value in [16] came out at 0.005. Moreover, the “Huh7 CC50 {Unbound}” value in [38] is recorded as 5.6 {5.1} μM. For the same compound, in [22], the “CEM CC50 {Unbound}” value was 12 {9.5} μM. Also, the “PBM CC50 {Unbound}” value in series [39] is given as 29.2 {23.8} μM.
